Columns and labels:
[1] = target: T1, hKv7.2/3 (Homo sapiens, UniProt O43525+O43526); assay: Kv7.2/7.3 whole-cell electrophysiology in CHO cells; format: cell-based; details: 100 nM, −40 mV, N=4, read-out: Kv7.2/3 current activation
T1 construct: host or cells: CHO
Excerpt: Extracellular (Bath) solution: The solution was composed of (in mM): NaCl, 140; KCl, 4; CaCl2, 1.8; MgCl2, 1.2; Glucose, 11; HEPES, 5.5. pH was adjusted to 7.3 with NaOH. Osmolarity was adjusted to 310 mOsm with Sucrose.
Intracellular (Pipette) solution: Pipettes were pulled from borosilicate glass (Warner Instrument Corp, USA) with a resistance of 3-7 MΩ and were filled with internal solution composed of (in mM): KCl, 130; MgCl2, 1; K ATP, 5; EGTA, 5 (replaced by BAPTA in rat DRG neurons recordings); HEPES, 10. pH was adjusted to 7.3 with KOH. Osmolarity was adjusted to 290 mOsm with Sucrose.
A programmable valve-linked pressurized perfusion system (AutoMate Scientific) was used for local application of compounds nearby the cell recorded in a consistent flow rate of 2-3 ml/min. Series resistance was corrected and data were sampled at 5 kHz and low pass filtered at 2.4 kHz using MultiClamp 700B amplifier with pCLAMP11 software (Molecular Devices, USA). […]
The current obtained at −40 mV membrane potential when test compound is injected is divided by the averaged current at −40 mV, recorded before test-compound application and following its washout, to evaluate the drug/control response.

[2] = target: T2, 5-HT1B (Homo sapiens, UniProt P28222); assay: Functional selectivity panel, 5-HT1B; format: biochemical
T2 construct: Eurofins DiscoverX, USA
T2 sequence (P28222 whole entry): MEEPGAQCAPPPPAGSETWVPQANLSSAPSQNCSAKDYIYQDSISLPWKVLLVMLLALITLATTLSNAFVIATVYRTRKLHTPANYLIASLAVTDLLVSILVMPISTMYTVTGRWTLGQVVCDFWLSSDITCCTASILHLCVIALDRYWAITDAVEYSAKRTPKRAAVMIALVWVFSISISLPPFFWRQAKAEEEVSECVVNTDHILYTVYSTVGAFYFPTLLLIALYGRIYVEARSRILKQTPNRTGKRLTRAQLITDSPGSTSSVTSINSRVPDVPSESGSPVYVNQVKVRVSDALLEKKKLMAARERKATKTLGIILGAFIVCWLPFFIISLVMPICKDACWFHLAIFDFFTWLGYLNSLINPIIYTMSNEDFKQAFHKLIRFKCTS
Method: (§1) A broad panel of 78 recombinant targets was tested for pharmacologic activity in vitro through a variety of functional assays (Eurofins DiscoverX, USA), as part of the National Institute of Neurological Disorders and Stroke (NINDS) Preclinical Screening Platform for Pain (PSPP) program. The biological targets for the in vitro profiling have been selected based on avoiding opioid receptor stimulation and targets known to be associated with adverse events or targeted by drugs of abuse. […] For each test, a reference compound was evaluated at the target of interest as a positive control.

[3] = target: T3, dopamine D2 (Homo sapiens, UniProt P14416); assay: Functional selectivity panel, dopamine D2; format: biochemical
T3 construct: Eurofins DiscoverX, USA
T3 sequence (P14416 whole entry): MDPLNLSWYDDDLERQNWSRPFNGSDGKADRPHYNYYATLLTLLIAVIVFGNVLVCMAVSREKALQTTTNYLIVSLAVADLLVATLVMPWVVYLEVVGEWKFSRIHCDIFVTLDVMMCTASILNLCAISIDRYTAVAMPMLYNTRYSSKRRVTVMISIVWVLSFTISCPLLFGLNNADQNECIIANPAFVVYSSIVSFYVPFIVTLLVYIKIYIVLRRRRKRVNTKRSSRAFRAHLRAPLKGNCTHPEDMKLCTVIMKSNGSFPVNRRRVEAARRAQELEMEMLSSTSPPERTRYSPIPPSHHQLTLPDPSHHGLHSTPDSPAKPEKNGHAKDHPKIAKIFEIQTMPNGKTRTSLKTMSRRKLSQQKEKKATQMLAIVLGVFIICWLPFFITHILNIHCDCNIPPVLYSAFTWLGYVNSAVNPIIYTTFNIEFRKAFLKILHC
Method: as §1

[4] = test system: rats; assay: Modified Irwin test; format: in vivo, rat; details: up to 300 mg/kg, male and female
Method: Twenty male and twenty female Sprague Dawley rats from Envigo were used in the study. […] Rats were housed in cages containing BedO'Cob® bedding with Nylabones® for enrichment. All rats were examined, handled, and weighed prior to initiation of the study to ensure adequate health and suitability. During the study, 12/12 light/dark cycles were maintained. The room temperature was maintained between 2° and 23° C. with a relative humidity maintained around 50%. […] The test was performed during the animal's light cycle phase (6 am to 6 μm), with observations targeted to be carried out between 8 am and 2 μm. Each vehicle or dose group contained 8 rats, 4 males and 4 females.
The day prior to assessment, rats were single housed in clean rat polycarbonate cages and food was removed. Animals were allocated to different groups based on body weight, under the concurrent restriction that cage mates could not be in the same treatment groups. […]
On the day of assessment, rats were scored on 39 behaviors (not shown). 1 hour prior to dosing, water was removed from the home cage baseline (BL) and behavioral observations were recorded.
Ten animals were assessed per day over 4 days. One male and one female subject from each treatment group was assessed by the observers in a pre-determined order that differed each day. […]

[5] = target: OCT1 (Homo sapiens, UniProt O15245); assay: Transporter substrate, OCT1; format: in vitro ADME; details: role: substrate
Sequence of OCT1 (O15245 whole entry): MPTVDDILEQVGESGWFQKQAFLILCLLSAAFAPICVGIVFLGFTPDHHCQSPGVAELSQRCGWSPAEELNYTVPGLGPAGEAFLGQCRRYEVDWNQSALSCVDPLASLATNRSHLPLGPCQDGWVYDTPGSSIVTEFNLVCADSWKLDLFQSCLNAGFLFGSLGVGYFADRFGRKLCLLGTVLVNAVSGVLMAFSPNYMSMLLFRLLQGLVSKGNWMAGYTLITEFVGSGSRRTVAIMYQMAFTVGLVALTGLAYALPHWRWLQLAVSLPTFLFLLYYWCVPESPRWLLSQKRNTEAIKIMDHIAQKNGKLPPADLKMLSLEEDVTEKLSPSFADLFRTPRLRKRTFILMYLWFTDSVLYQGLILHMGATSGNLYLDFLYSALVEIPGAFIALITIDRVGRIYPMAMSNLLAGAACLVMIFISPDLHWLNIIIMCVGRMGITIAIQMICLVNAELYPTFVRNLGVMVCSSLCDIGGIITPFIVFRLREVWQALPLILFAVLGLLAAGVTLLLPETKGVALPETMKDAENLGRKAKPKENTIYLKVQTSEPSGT
Method: (§2) Additionally, compound 760 was tested for its capability to act as a transporter substrate for various transporters, and was not found to be a transporter substrate for any of the tested transporters.

[6] = target: P-gp (Homo sapiens, UniProt P08183); assay: Transporter substrate, P-gp; format: in vitro ADME; details: role: substrate
Sequence of P-gp (P08183 whole entry): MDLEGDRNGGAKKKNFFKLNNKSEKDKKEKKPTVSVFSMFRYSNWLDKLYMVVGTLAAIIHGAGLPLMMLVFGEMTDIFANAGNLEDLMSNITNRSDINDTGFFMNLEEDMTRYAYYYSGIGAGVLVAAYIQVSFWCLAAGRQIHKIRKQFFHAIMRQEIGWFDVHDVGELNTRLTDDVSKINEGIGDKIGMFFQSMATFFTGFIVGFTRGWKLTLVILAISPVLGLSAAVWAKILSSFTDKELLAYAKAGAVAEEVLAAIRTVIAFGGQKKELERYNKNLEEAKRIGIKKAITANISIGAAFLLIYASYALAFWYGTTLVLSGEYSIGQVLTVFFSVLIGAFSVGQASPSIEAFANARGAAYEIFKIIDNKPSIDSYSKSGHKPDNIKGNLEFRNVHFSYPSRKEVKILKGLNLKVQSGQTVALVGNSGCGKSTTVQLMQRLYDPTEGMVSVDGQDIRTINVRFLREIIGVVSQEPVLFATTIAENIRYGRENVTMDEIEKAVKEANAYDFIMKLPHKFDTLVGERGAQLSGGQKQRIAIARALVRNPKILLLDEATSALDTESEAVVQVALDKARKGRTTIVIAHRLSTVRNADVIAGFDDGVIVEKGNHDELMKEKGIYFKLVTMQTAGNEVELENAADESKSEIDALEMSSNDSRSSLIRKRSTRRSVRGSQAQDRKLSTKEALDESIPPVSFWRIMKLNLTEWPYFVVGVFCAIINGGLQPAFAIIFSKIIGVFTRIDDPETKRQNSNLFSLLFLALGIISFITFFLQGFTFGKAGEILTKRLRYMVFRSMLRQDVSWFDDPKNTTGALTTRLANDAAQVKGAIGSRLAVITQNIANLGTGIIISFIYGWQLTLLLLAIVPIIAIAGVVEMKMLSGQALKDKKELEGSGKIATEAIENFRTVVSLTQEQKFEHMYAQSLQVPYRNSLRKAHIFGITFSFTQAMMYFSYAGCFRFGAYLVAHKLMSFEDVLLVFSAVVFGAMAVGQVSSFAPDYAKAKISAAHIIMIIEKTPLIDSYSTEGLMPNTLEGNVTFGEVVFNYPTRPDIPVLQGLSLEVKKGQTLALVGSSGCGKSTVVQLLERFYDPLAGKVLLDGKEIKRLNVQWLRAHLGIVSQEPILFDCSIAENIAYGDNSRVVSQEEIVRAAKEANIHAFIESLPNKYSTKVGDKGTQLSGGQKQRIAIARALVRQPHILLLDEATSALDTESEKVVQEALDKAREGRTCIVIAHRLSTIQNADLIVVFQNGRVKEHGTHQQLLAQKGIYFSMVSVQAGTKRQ
Method: as §2

[7] = test system: Cannabinoid CB1-2; assay: Functional screening panel, Cannabinoid CB1-2; format: biochemical; details: up to 10 micromolar
Method: as §1

[8] = target: OAT1 (Homo sapiens, UniProt Q4U2R8); assay: Transporter substrate, OAT1; format: in vitro ADME; details: role: substrate
Sequence of OAT1 (Q4U2R8 whole entry): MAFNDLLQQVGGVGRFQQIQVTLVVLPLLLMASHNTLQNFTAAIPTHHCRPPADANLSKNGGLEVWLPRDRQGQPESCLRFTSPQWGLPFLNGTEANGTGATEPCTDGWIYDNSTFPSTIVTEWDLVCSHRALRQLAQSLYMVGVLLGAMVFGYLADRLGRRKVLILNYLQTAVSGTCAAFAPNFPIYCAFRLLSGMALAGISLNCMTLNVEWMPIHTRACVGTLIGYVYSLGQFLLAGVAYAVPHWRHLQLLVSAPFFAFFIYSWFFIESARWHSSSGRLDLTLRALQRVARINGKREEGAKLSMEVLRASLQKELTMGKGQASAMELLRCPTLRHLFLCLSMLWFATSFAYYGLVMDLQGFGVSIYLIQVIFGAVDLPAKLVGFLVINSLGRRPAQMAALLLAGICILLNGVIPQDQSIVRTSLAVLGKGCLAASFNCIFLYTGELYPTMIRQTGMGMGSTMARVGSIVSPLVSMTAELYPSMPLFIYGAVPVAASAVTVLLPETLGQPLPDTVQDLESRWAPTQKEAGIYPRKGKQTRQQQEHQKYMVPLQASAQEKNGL
Method: as §2

[9] = test system: CHO-K1 cells; assay: In vitro micronucleus; format: cell-based
[10] = In vitro micronucleus; format: cell-based; details: hamster, cho-k1 cells, read-out: Cytotoxicity (%) Absolute EC50

T1 sequence (O43525 whole entry): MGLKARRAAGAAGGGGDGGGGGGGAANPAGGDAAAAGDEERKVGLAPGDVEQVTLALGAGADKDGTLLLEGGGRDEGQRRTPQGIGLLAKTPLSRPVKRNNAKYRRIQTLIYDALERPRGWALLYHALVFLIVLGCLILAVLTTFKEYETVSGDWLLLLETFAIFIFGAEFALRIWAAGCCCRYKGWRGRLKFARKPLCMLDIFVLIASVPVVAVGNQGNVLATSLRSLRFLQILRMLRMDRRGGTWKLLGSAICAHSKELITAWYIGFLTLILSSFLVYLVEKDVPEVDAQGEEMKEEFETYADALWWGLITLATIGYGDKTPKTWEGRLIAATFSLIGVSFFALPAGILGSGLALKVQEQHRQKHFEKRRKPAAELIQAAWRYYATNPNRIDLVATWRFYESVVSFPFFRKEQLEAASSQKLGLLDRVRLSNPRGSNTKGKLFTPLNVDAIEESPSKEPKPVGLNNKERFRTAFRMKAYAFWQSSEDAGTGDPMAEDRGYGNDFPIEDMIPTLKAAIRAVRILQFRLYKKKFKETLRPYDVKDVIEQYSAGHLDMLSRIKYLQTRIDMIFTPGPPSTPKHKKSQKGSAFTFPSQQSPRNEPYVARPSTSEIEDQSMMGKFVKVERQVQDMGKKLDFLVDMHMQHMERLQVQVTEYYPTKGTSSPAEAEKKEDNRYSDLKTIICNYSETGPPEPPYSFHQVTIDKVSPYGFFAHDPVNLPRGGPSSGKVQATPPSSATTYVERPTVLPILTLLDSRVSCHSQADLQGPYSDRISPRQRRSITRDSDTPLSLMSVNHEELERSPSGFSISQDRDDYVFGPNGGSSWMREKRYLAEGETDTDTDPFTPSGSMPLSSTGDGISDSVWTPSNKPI
T1 sequence (O43526 whole entry): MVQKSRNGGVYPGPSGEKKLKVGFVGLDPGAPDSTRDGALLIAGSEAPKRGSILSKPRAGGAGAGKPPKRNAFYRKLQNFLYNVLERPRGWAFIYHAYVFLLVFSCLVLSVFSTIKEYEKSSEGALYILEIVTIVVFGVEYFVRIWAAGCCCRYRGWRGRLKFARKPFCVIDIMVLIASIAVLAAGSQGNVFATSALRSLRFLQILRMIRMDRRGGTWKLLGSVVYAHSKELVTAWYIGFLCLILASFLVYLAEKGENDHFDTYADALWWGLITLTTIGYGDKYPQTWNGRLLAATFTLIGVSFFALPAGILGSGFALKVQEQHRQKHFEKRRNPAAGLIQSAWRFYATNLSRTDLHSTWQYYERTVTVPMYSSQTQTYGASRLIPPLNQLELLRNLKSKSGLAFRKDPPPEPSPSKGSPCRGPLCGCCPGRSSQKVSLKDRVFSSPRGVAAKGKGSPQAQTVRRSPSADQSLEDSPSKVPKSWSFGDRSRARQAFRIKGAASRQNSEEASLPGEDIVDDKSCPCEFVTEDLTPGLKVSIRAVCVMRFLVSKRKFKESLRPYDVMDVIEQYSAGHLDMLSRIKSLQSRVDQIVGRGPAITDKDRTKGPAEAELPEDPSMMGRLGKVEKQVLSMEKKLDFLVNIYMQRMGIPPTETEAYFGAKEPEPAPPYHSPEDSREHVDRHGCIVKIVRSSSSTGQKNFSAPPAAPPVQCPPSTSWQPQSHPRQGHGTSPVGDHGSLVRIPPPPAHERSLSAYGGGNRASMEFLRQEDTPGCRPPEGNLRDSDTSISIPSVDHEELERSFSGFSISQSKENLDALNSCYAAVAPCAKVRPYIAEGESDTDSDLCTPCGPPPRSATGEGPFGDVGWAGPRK

O=C(Cc1cc(-n2cc(Cl)c3cc(Cl)cc(Cl)c32)ccc1F)NCCO [Compound 627]
activation at 0.1 µM [1]: 24.4 ± 10.4%

O=C(Cc1cncc(-n2cc(Cl)c3cc(Cl)cc(Cl)c32)c1)N[C@@H]1COC[C@H]1O [Compound 661]
IC50 [2]: 10 µM | IC50 [3]: 10 µM | Modified Irwin FOB [4]: no effects up to 300 mg/kg

O=C(Cc1nccc(-n2cc(Cl)c3cc(Cl)cc(Cl)c32)n1)NC1COCC1O (stereo not drawn) [Compound 760]
OCT1 substrate [5]: not a transporter substrate | P-gp substrate [6]: not a transporter substrate or a poor substrate | Effect on Cannabinoid CB1-2 [7]: no effect | OAT1 substrate [8]: not a transporter substrate | Micronucleus formation [9]: lacks significant micronucleus formation | Micronucleus response Absolute MEC ([9]; Plate 1 with S9, 3 hours): >200 µM | CC50 ([9]; Plate 1 with S9, 3 hours, read-out: Cytotoxicity (%) Absolute EC50): > 200 µM | Micronucleus response Absolute MEC ([9]; Plate 2 without S9, 3 hours): >200 µM | Micronucleus response Absolute MEC ([9]; Plate 3 without S9, 24 hours): >200 µM | CC50 at 3 h ([10]; Plate 2 without S9, 3 hours): > 200 µM | CC50 at 24 h ([10]; Plate 3 without S9, 24 hours): 81.2 µM

From US20260327211A1, “MODULATORS OF A POTASSIUM CHANNEL AND OF TRPV1 CHANNEL AND USES THEREOF” (Bsense Bio Therapeutics Ltd., priority 2023, published 2026)
